Results taken from PMC7377239, “Cardiovascular Effects of Polychlorinated Biphenyls and Their Major Metabolites” (Environmental Health Perspectives, 2020).
Like-named read-outs stand apart in the source and are kept apart here.

Assays:
[1] = system: iCell cardiomyocytes (human iPSC-derived cardiomyocytes); experiment: High-content imaging of cytotoxicity and mitochondrial integrity in iPSC-CMs; type: cell-based; settings: Homo sapiens; for viability at 0.01 µM / activity at 0.01 µM / viability at 0.1 µM / activity at 0.1 µM / viability at 1 µM / activity at 1 µM / viability at 10 µM / activity at 10 µM / viability at 100 µM / activity at 100 µM: Cardiomyocyte, 0.00 µM = 100.00; for viability at 0.1 µM / activity at 0.1 µM: 0.10 µM; for minimal effective concentration: iPSC-CM
Method: Details on cardiomyocyte cell culture are described in detail elsewhere ([Grimm et al. 2015b]; [Sirenko et al. 2013a]). Briefly, tissue-culture treated 384 well plates were gelatinized with 25μL per well of 0.1% (w/v) gelatin in water for 2 h at 37°C and 5% CO2 . Individual vials of cells were thawed for 4 min in a water bath maintained at 37°C. Thawed cells were resuspended in 10ml plating medium containing 1:500 (vol/vol) penicillin/streptomycin solution at room temperature (RT). Live cell counts for each cell suspension were determined by trypan blue staining and cells were further diluted to provide final cell densities of 2×10^5 viable cells/ml. Thus, 5,000 cells suspended in 25μL media were transferred per well after the gelatin solution had been discarded. Cell culture plates were rested for 30 min at RT before they were incubated for 48 h at 37°C and 5% CO2 . Then, a media exchange with 30μL of fresh maintenance medium containing 1:500 (vol/vol) penicillin/streptomycin solution was performed, and cell media were subsequently changed every 48 h for 12 d. On the experiment day, the medium was completely exchanged with either 25μL (for Ca^2+ flux assay) or 40μL (for imaging) of fresh medium.
Cytotoxicity and effects on mitochondrial integrity of various PCBs and PCB metabolites in induced pluripotent stem cell-CMs (iPSC-CMs) were assessed using high-content cellular imaging in ImageXpress® Micro Confocal (Molecular Devices) as detailed in ([Grimm et al. 2015b]). Cells in 40μL maintenance media were treated with 10μL of 5× chemical solutions to provide test chemicals at final assay concentrations ranging from 0.01 to 100μM . […] Next, sample wells were treated with 50μL equilibrated 2× concentrated staining solution (maintenance medium containing Hoechst 33342, 4μg/mL and MitoTracker™ Orange, 0.4μM ). Microplates were then incubated for 15 min at 37°C and 5% CO2 before cells were washed twice with 30μL maintenance medium. All media were aspirated and discarded, and cells were fixed with […] of a 3.7% formaldehyde solution for 15 min at 37°C and 5% […] . Fixed cells were washed 3× with 25μL PBS before image acquisition using the DAPI (Hoechst 33342) and Cy3 (MitoTracker™ Orange) filters at 10× magnification on the ImageXpress® Micro Confocal high-content confocal microscope (Molecular Devices). The multiwavelength cell scoring applications module in MetaXpress® was used to analyze acquired images.
(§1) Phenotypic responses were quantitatively assessed using concentration–response modeling as detailed elsewhere ([Sirenko et al. 2017]). Briefly, phenotypic readouts were normalized to vehicle controls and fit to a four-parameter logistic model in R studio software (version 3.1.1; R Development Core Team). Following EPA guidance on dose–response modeling, a cutoff of one standard deviation across means of vehicle control (i.e., 0.5% vol/vol DMSO in cell culture media) wells was applied to determine the point-of-departure (POD) values ([U.S. EPA 2012]). In the absence of a concentration–response, the highest tested concentration (i.e., 100μM ) was assigned as “no observable adverse effect level.” The concentration–response assessment R script, as well as templates for vehicle and concentration–response data, are available as a supplement to Sirenko et al. ([2017]). The ability of physicochemical properties to predict differences in PODs were evaluated by multiregression and mixed-effects modeling using R.

HUVECs = experiment: High-content imaging cytotoxicity in HUVECs, 24 h; type: cell-based, human; settings: Homo sapiens, HUVEC, 24 h, HUVECs; for viability at 0.01 µM / activity at 0.01 µM / viability at 0.1 µM / activity at 0.1 µM / viability at 1 µM / activity at 1 µM / viability at 10 µM / activity at 10 µM / viability at 100 µM / activity at 100 µM: 0.00 µM = 100.00; for viability at 0.1 µM / activity at 0.1 µM: 0.10 µM; for minimal effective concentration: top concentration 100.00 µM
Method: Similar to the cultivation of iCell®-endothelial cells, HUVEC maintenance and experimentation are detailed elsewhere ([Iwata et al. 2017]). Briefly, HUVECs were thawed, seeded, and grown in T75 tissue culture flasks in Medium 199 with EGM™-2 BulletKits™. HUVECs were incubated at regular cell culture conditions, 37°C and 5% CO2 , and passaged every 2–3 d using TrypLE™ Express. To ensure adequate endothelial function, experiments were performed with cells between passages 1 and 5.
Cytotoxicity was assessed in parallel experiments. For iCell®-endothelial cells, 384-well plates were coated with a 30μg/mL fibronectin solution ( 10μL/well ) and incubated for 2 h at RT. iCell®-endothelial cells were dissociated with TrypLE™ Express and prepared into a solution to achieve 750 cells per well and 50μL of total volume. The fibronectin solution was removed from the 384-well plate, and cells were plated. For HUVECs, similar dissociation and the same cell density were used for plating with the exclusion of the fibronectin solution. Cells were incubated at 37°C and 5% CO2 until a monolayer was formed, typically 3–5 d. 2×PCB plates were created with the requisite maintenance medium. Before treatment, the medium in the wells was exchanged to 25μL/well of fresh maintenance medium. 2×PCB chemical solutions ( […] ) were added. After 24 h incubation at 37°C and 5% CO2 , cells were stained with Hoechst 33342, MitoTracker™ Orange, and calcein AM for 20 min before replacing the staining media with FluoroBright DMEM. Cell culture plates were imaged using the ImageXpress® Micro Confocal high-content imaging system (Molecular Devices). Images were acquired at 10× magnification with DAPI, TRITC, or FITC filter (Hoechst 33342, MitoTracker™, or calcein AM, respectively). The multiwavelength cell scoring applications module in MetaXpress™ (Molecular Devices) was used to analyze the images.
as §1

[2] = 24 hr, read-out: huvec.cyto.24hr
[3] = 24 hr, read-out: huvec.mito.24hr
[4] = 24 hr, read-out: huvec.mitoint.24hr
[5] = 24 hr, read-out: huvec.nma.24hr
[6] = 24 hrs, read-out: huvec.tc.24hrs

`Oc1ccccc1-c1ccc(Cl)cc1` [2'-OH PCB3] gave a viability at 0.01 µM ([1]; 1.5 h, read-out: cm.cam.90min) of 104%, an activity at 0.01 µM ([1]; 1.5 h, read-out: cm.mii.90min) of 111% and an activity at 0.01 µM ([1]; 1.5 h, read-out: cm.mito.90min) of 104%. It also gave a viability at 0.01 µM ([1]; 1.5 h, read-out: cm.tc.90min) of 104%, a viability at 0.1 µM ([1]; 1.5 h, read-out: cm.cam.90min) of 95.6% and an activity at 0.1 µM ([1]; 1.5 h, read-out: cm.mii.90min) of 113%. It also gave an activity at 0.1 µM ([1]; 1.5 h, read-out: cm.mito.90min) of 95.6%, a viability at 0.1 µM ([1]; 1.5 h, read-out: cm.tc.90min) of 95.6% and a viability at 1 µM ([1]; 1.5 h, read-out: cm.cam.90min) of 101%. It also gave an activity at 1 µM ([1]; 1.5 h, read-out: cm.mii.90min) of 101%, an activity at 1 µM ([1]; 1.5 h, read-out: cm.mito.90min) of 101% and a viability at 1 µM ([1]; 1.5 h, read-out: cm.tc.90min) of 101%. It also gave a viability at 10 µM ([1]; 1.5 h, read-out: cm.cam.90min) of 102%, an activity at 10 µM ([1]; 1.5 h, read-out: cm.mii.90min) of 92.5% and an activity at 10 µM ([1]; 1.5 h, read-out: cm.mito.90min) of 102%. The viability at 10 µM ([1]; 1.5 h, read-out: cm.tc.90min) was 102%, the viability at 100 µM ([1]; 1.5 h, read-out: cm.cam.90min) was 0% and the activity at 100 µM ([1]; 1.5 h, read-out: cm.mii.90min) was 32.7%. It also gave an activity at 100 µM ([1]; 1.5 h, read-out: cm.mito.90min) of 0.07%, a viability at 100 µM ([1]; 1.5 h, read-out: cm.tc.90min) of 0.07% and a viability at 0.01 µM ([1]; 24 h, read-out: cm.cam.24hrs) of 95.1%. The activity at 0.01 µM ([1]; 24 h, read-out: cm.mii.24hrs) was 98.5%, the activity at 0.01 µM ([1]; 24 h, read-out: cm.mito.24hrs) was 92.6% and the viability at 0.01 µM ([1]; 24 h, read-out: cm.tc.24hrs) was 94.5%. It also gave a viability at 0.1 µM ([1]; 24 h, read-out: cm.cam.24hrs) of 94.5%, an activity at 0.1 µM ([1]; 24 h, read-out: cm.mii.24hrs) of 96% and an activity at 0.1 µM ([1]; 24 h, read-out: cm.mito.24hrs) of 91.2%. For the same molecule, the viability at 0.1 µM ([1]; 24 h, read-out: cm.tc.24hrs) was 94.3%, the viability at 1 µM ([1]; 24 h, read-out: cm.cam.24hrs) was 99.7% and the activity at 1 µM ([1]; 24 h, read-out: cm.mii.24hrs) was 98.3%. The activity at 1 µM ([1]; 24 h, read-out: cm.mito.24hrs) was 96.7%, the viability at 1 µM ([1]; 24 h, read-out: cm.tc.24hrs) was 99.8% and the viability at 10 µM ([1]; 24 h, read-out: cm.cam.24hrs) was 103%. It also gave an activity at 10 µM ([1]; 24 h, read-out: cm.mii.24hrs) of 74.7%, an activity at 10 µM ([1]; 24 h, read-out: cm.mito.24hrs) of 104% and a viability at 10 µM ([1]; 24 h, read-out: cm.tc.24hrs) of 103%. The viability at 100 µM ([1]; 24 h, read-out: cm.cam.24hrs) was 0%, the activity at 100 µM ([1]; 24 h, read-out: cm.mii.24hrs) was 0% and the activity at 100 µM ([1]; 24 h, read-out: cm.mito.24hrs) was 0%. It also gave a viability at 100 µM ([1]; 24 h, read-out: cm.tc.24hrs) of 0%, a minimal effective concentration ([1]; 1.5 h, read-out: cm.cam.90min POD) of 32.8 µM and a minimal effective concentration ([1]; 1.5 h, read-out: cm.mii.90min POD) of 9.15 µM. For the same molecule, the minimal effective concentration ([1]; 1.5 h, read-out: cm.mito.90min POD) was 41.4 µM, the minimal effective concentration ([1]; 1.5 h, read-out: cm.tc.90min POD) was 34.5 µM and the minimal effective concentration ([1]; 24 h, read-out: cm.cam.24hrs POD) was 40.4 µM. For the same molecule, the minimal effective concentration ([1]; 24 h, read-out: cm.mii.24hrs POD) was 6.56 µM, the minimal effective concentration ([1]; 24 h, read-out: cm.mito.24hrs POD) was 29.8 µM and the minimal effective concentration ([1]; 24 h, read-out: cm.tc.24hrs POD) was 35.9 µM. It also gave a viability at 0.01 µM (HUVECs; [2]) of 88.2%, an activity at 0.01 µM (HUVECs; [3]) of 87.7% and an activity at 0.01 µM (HUVECs; [4]) of 94.4%. The activity at 0.01 µM (HUVECs; [5]) was 93.4%, the viability at 0.1 µM (HUVECs; [2]) was 84.3% and the activity at 0.1 µM (HUVECs; [3]) was 84%. It also gave an activity at 0.1 µM (HUVECs; [4]) of 125%, an activity at 0.1 µM (HUVECs; [5]) of 97.1% and a viability at 1 µM (HUVECs; [2]) of 93%. The activity at 1 µM (HUVECs; [3]) was 92.5%, the activity at 1 µM (HUVECs; [4]) was 107% and the activity at 1 µM (HUVECs; [5]) was 95.6%. It also gave a viability at 10 µM (HUVECs; [2]) of 90.2%, an activity at 10 µM (HUVECs; [3]) of 88.2% and an activity at 10 µM (HUVECs; [4]) of 104%. It also gave an activity at 10 µM (HUVECs; [5]) of 92.6%, a viability at 100 µM (HUVECs; [2]) of 47.5% and an activity at 100 µM (HUVECs; [3]) of 38.4%. For the same molecule, the activity at 100 µM (HUVECs; [4]) was 9.54%, the activity at 100 µM (HUVECs; [5]) was 65% and the minimal effective concentration (HUVECs; 24 hr, read-out: huvec.cyto.24hr POD) was 5.19 µM. It also gave a minimal effective concentration (HUVECs; 24 hr, read-out: huvec.mito.24hr POD) of 4.06 µM, a minimal effective concentration (HUVECs; 24 hr, read-out: huvec.mitoint.24hr POD) of 34.4 µM and a minimal effective concentration (HUVECs; 24 hr, read-out: huvec.nma.24hr POD) of 1.6 µM. It also gave a viability at 0.01 µM (HUVECs; [6]) of 88.2%, a viability at 0.1 µM (HUVECs; [6]) of 84.3% and a viability at 1 µM (HUVECs; [6]) of 93.2%. For the same molecule, the viability at 10 µM (HUVECs; [6]) was 90.3%, the viability at 100 µM (HUVECs; [6]) was 84.1% and the minimal effective concentration (HUVECs; 24 hrs, read-out: huvec.tc.24hrs POD) was 5.19 µM.
